# Measurements published in ChEMBL document CHEMBL4000244, “Probing A-form DNA: A fluorescent aminosugar probe and dual recognition by anthraquinone-neomycin conjugates” (Bioorg Med Chem, 2017).
# Key:
# [1] = Binding affinity to 5'-GGCCGCCC-3' DNA hairpin assessed as change in fluorescence intensity at 1 uM after 45 mins by fluorescence quenching analysis relative to control
# [2] = Binding affinity to 5'-GCGCCGGG-3' DNA hairpin assessed as change in fluorescence intensity at 1 uM after 45 mins by fluorescence quenching analysis relative to control
# [3] = Binding affinity to 5'-GCGCCCGC-3' DNA hairpin assessed as change in fluorescence intensity at 1 uM after 45 mins by fluorescence quenching analysis relative to control
# [4] = Binding affinity to 5'-CGGGGGCC-3' DNA hairpin assessed as change in fluorescence intensity at 1 uM after 45 mins by fluorescence quenching analysis relative to control
# [5] = Binding affinity to 5'-GCCCGGCG-3' DNA hairpin assessed as change in fluorescence intensity at 1 uM after 45 mins by fluorescence quenching analysis relative to control
# [6] = Binding affinity to 5'-CGGCCCGC-3' DNA hairpin assessed as change in fluorescence intensity at 1 uM after 45 mins by fluorescence quenching analysis relative to control
structure (smiles),measurement,setting,value
NCC1O[C@H](O[C@H]2[C@@H](O)[C@H](O[C@@H]3[C@@H](O)[C@H](N)C[C@H](N)[C@H]3O[C@H]3O[C@H](CN)[C@@H](O)[C@H](O)[C@H]3N)O[C@@H]2CSCCNC(=O)CCSCC(=O)Nc2ccc(-c3c4ccc(=O)cc-4oc4cc(O)ccc34)c(C(=O)O)c2)[C@H](N)[C@@H](O)[C@@H]1O (stereo partly specified),Activity,[1],37.9%
same,Activity,[2],46.9%
same,Activity,[3],50.3%
same,Activity,[4],38.1%
same,Activity,[5],51.9%
same,Activity,[6],39.9%
